How the values were obtained:
Experiment in all cases: relative viability (nuclei count vs DMSO), 5 days (fraction); higher = more cells survive
[1] = compound: C1CC(C2=C(C1)C3=C(N2)C=CC(=C3)Cl)C(=O)N [Selisistat] + N=C(N)NC(=N)NCCc1ccccc1 [Phenformin] (partner 250 µM)
In short: (§1)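 A single step with final 0.05% Triton X-100, 1% formaldehyde and 1 ug/ml Hoechst fixed the cells and stained nuclei 5 days after treatment. Lung cancer cell lines in 1536-well plates had been treated by pin tool the day after seeding with one drug alone or a fixed anchor-drug dose plus five library-drug doses (not always all listed) in √10 steps, and nuclei were counted on 4× images. Relative viability is the ratio of nuclei in treated wells to nuclei in vehicle wells, taken as the median of duplicate plates.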

[2] = compound: c1ccc2c(CCNc3ccc(Nc4ccncc4)cc3)c[nH]c2c1 [Serdemetan] + CC(C)C[C@H](NC(=O)[C@H](Cc1ccccc1)NC(=O)c1cnccn1)B(O)O [Bortezomib] (partner 0.002 µM)
In short: as §1

[3] = compound: c1ccc2c(CCNc3ccc(Nc4ccncc4)cc3)c[nH]c2c1 [Serdemetan] + CS(=O)(=O)CCNCc1ccc(-c2ccc3ncnc(Nc4ccc(OCc5cccc(F)c5)c(Cl)c4)c3c2)o1 [Lapatinib] (partner 2 µM)
In short: as §1

[4] = compound: C1CC(C2=C(C1)C3=C(N2)C=CC(=C3)Cl)C(=O)N [Selisistat] + Cc1cc(Nc2cc(N3CCN(C)CC3)nc(Sc3ccc(NC(=O)C4CC4)cc3)n2)n[nH]1 [Tozasertib] (partner 0.1 µM)
In short: as §1

Cell Line	relative viability ([1]; first compound 0.4 µM)	relative viability ([1]; first compound 1.265 µM)	relative viability ([1]; first compound 4 µM)	relative viability ([1]; first compound 12.65 µM)	relative viability ([1]; first compound 40 µM)	relative viability ([2]; first compound 0.04 µM)	relative viability ([2]; first compound 0.1265 µM)	relative viability ([2]; first compound 0.4 µM)	relative viability ([2]; first compound 1.265 µM)	relative viability ([2]; first compound 4 µM)	relative viability ([3]; first compound 0.04 µM)	relative viability ([3]; first compound 0.1265 µM)	relative viability ([3]; first compound 0.4 µM)	relative viability ([3]; first compound 1.265 µM)	relative viability ([3]; first compound 4 µM)	relative viability ([4]; first compound 0.4 µM)	relative viability ([4]; first compound 1.265 µM)	relative viability ([4]; first compound 4 µM)	relative viability ([4]; first compound 12.65 µM)	relative viability ([4]; first compound 40 µM)
201T	0.449	0.436	0.432	0.41	0.481	1.08	1.14	1.1	1.05	1.06	0.976	0.943	1.04	0.937	0.94	0.945	0.95	0.873	0.919	0.935
A549	0.192	0.17		0.123	0.145						1.06	0.916	0.901	0.953	0.455					
A-427	0.261	0.383	0.266	0.255	0.327	0.954	1.03	0.959	0.662	0.598	0.996	0.987	1.1	1.02	0.749	0.207	0.194	0.182	0.226	0.183
ABC-1	0.221	0.213	0.265	0.265	0.263	0.294	0.328	0.317	0.307	0.278	1.08	1.07	1.25		0.717	0.184	0.179	0.17	0.176	0.149
BEN	0.246	0.286	0.256	0.239	0.275	0.785	0.924	0.766	0.48	0.763	0.623	0.704	0.592	0.359	0.556	0.55	0.406	0.385	0.505	0.471
CAL-12T	0.586	0.565	0.406	0.516	0.537		1.11		0.931	1.04		0.859		0.599	0.579	0.306	0.239	0.328	0.27	0.255
COR-L23	0.443	0.43	0.458	0.424	0.441	0.918	0.863	0.996	0.669	0.978	0.916	0.924	1.03	0.422	0.78	0.243	0.241	0.218	0.171	0.183
COR-L 105	0.479	0.439		0.371	0.421	0.775	0.764	0.563	0.7	0.745	0.384	0.372	0.284	0.335	0.363	0.344	0.344		0.315	0.336
Calu-6						1.1	0.969	1.04	0.864	0.672	1.13	0.99	0.989	0.887	0.68					
ChaGo-K-1	0.488	0.458	0.439	0.422	0.485		1.14	0.697	0.775	0.849						0.213	0.214	0.232	0.186	0.245
EBC-1						0.482	0.575	0.588	0.563	0.421	0.23	0.238	0.218	0.21	0.203					
EKVX	0.221	0.243	0.222	0.23	0.249	1.09	1	0.857	0.911	1.25	0.193	0.19	0.201	0.18	0.168	0.352	0.37	0.421	0.376	0.369
EMC-BAC-2	0.514	0.502	0.567	0.517	0.493	1.07	1.06	1.04	0.907	0.939	0.909	0.899	0.92	0.732	0.841	0.302	0.286	0.404	0.281	0.257
EPLC-272H	0.302	0.322		0.288	0.296	0.967	0.931	0.899	0.723	0.634	1.01	0.905	1.07	0.618	0.944	0.265	0.231		0.34	0.191
H3255	0.375	0.363	0.327	0.405	0.374	0.827	0.68	0.886	0.746	0.7	0.222	0.229	0.258	0.251	0.186	0.624	0.772	0.589	0.657	0.717

From the supplement of paper PMC10307832
